Assay results: patent US10219516B2, “Molecules having pesticidal utility, and intermediates, compositions, and processes, related thereto” (priority 2015, dated 2019)

Key:
Assay type in all cases: in vivo
[1] = tested on: Beet Armyworm (Spodoptera exigua, LAPHEG); test: Bioassay on Beet Armyworm (BAW), 128-well diet tray assay; details: Species BAW (Beet Armyworm), read-out: BAW (Biological Results, rating)
Outline: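 Percent mortality, averaged across eight replicate wells, was scored after five to seven days at 25° C. under a 14:10 light-dark cycle. Each well's diet carried 50 μg/cm^2 of the dried test molecule and held one to five second instar larvae.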

[2] = tested on: Cabbage Looper (Trichoplusia ni, TRIPNI); test: Bioassay on Cabbage Looper (CL), 128-well diet tray assay; details: Trichoplusia ni; Species CL (Cabbage Looper); read-out: CL (Biological Results, rating)
Outline: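 Diet-incorporation-free surface assay: 50 μg/cm^2 compound in acetone-water (90:10), dried on diet; 1–5 2nd-instar larvae/well; 8 wells; vented cover; 25° C., 14:10 L:D, 5–7 d; % mortality averaged over wells.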

[3] = tested on: Yellow Fever Mosquito (Aedes aegypti, AEDSAE); test: Bioassay on Yellow Fever Mosquito (YFM), 96-well plate larval assay; details: Species YFM (Yellow Fever Mosquito)
Outline: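 Aedes aegypti larvae (about 1 day old) in liver-powder water were added to plates dispensed from DMSO master plates (4000 ppm stock) diluted with 90:10 water/acetone; six replicate plates per master. Lidded plates were held at room temperature for 3 days, then each well was scored for mortality.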

Compound | pest or weed control at 50 µg/cm2 [1] | pest or weed control at 50 µg/cm2 [2] | YFM (Biological Results, rating) [3]
CNc1ccc(NC(=O)c2cc(NC(=O)[C@H]3[C@H](c4cc(Cl)cc(Cl)c4)C3(Cl)Cl)cc(Cl)c2Cl)cc1 (relative stereo) [F249, trans-2,3-Dichloro-5-(2,2-dichloro-3-(3,5-dichlorophenyl)cyclopropane-1-carboxamido)-N-(4-(methylamino)phenyl)benzamide] | 50 to 100% | 50 to 100% | A (80-100)
COC(=O)C(O)(c1ccc(NC(=O)c2cc(NC(=O)[C@H]3[C@H](c4cc(Cl)cc(Cl)c4)C3(Cl)Cl)ccc2Cl)c(C)c1)C(F)(F)F (relative stereo) [F257, Methyl 2-(4-(2-chloro-5-(trans)-(2,2-dichloro-3-(3,5-dichlorophenyl)cyclopropane-1-carboxamido)benzamido)-3-methylphenyl)-3,3,3-trifluoro-2-hydroxypropanoate] | 50 to 100% | 50 to 100% | A (80-100)
C=C(c1ccc(NC(=O)c2cc(NC(=O)[C@H]3[C@H](c4cc(Cl)cc(Cl)c4)C3(Cl)Cl)ccc2Cl)c(C)c1)C(F)(F)F (relative stereo) [F258, 2-Chloro-5-(trans)-(2,2-dichloro-3-(3,5-dichlorophenyl)cyclopropane-1-carboxamido)-N-(2-methyl-4-(3,3,3-trifluoroprop-1-en-2-yl)phenyl)benzamide] | 50 to 100% | 50 to 100% | B (More than 0-Less than 80)
O=C(Nc1ccccc1)c1cc(NC(=O)[C@H]2[C@H](c3ccc(F)c(Cl)c3)C2(Cl)Cl)ccc1Cl (relative stereo) [F259, trans-2-Chloro-5-(2,2-dichloro-3-(3-chloro-4-fluorophenyl)cyclopropane-1-carboxamido)-N-phenylbenzamide] | 50 to 100% | 50 to 100% | A (80-100)
CC(=O)Nc1ccc(NC(=O)c2cc(NC(=O)[C@H]3[C@H](c4ccc(F)c(Cl)c4)C3(Cl)Cl)ccc2Cl)cc1 (relative stereo) [F260, trans-N-(4-Acetamidophenyl)-2-chloro-5-(2,2-dichloro-3-(3-chloro-4-fluorophenyl)cyclopropane-1-carboxamido)benzamide] | 50 to 100% | 50 to 100% | A (80-100)
CNc1ccc(NC(=O)c2cc(NC(=O)[C@H]3[C@H](c4ccc(F)c(Cl)c4)C3(Cl)Cl)ccc2Cl)cc1 (relative stereo) [F261, trans-2-Chloro-5-(2,2-dichloro-3-(3-chloro-4-fluorophenyl)cyclopropane-1-carboxamido)-N-(4-(methylamino)phenyl)benzamide] | 50 to 100% | 50 to 100% | A (80-100)
Cc1cc(NC(=O)OC(C)(C)C)ccc1NC(=O)c1cccc(NC(=O)[C@H]2[C@H](c3cc(Cl)c(Cl)c(Cl)c3)C2(Cl)Cl)c1 (relative stereo) [F262, trans-tert-Butyl (4-(3-(2,2-dichloro-3-(3,4,5-trichlorophenyl)cyclopropane-1-carboxamido)benzamido)-3-methylphenyl)carbamate] | 50 to 100% | 50 to 100% | B (More than 0-Less than 80)
Cc1cc(NC(=O)OC(C)(C)C)ccc1NC(=O)c1cccc(NC(=O)[C@H]2[C@H](c3cc(Cl)cc(Cl)c3)C2(Cl)Cl)c1 (relative stereo) [F263, trans-tert-Butyl (4-(3-(2,2-dichloro-3-(3,5-dichlorophenyl)cyclopropane-1-carboxamido)benzamido)-3-methylphenyl)carbamate] | 50 to 100% | 50 to 100% | B (More than 0-Less than 80)
Cc1cc(N)ccc1NC(=O)c1cccc(NC(=O)[C@H]2[C@H](c3cc(Cl)c(Cl)c(Cl)c3)C2(Cl)Cl)c1 (relative stereo) [F264, trans-N-(4-Amino-2-methylphenyl)-3-(2,2-dichloro-3-(3,4,5-trichlorophenyl)cyclopropane-1-carboxamido)benzamide] | 50 to 100% | 50 to 100% | A (80-100)
Cc1cc(N)ccc1NC(=O)c1cccc(NC(=O)[C@H]2[C@H](c3ccc(Cl)c(Cl)c3)C2(Cl)Cl)c1 (relative stereo) [F265, trans-N-(4-Amino-2-methylphenyl)-3-(2,2-dichloro-3-(3,4-dichlorophenyl)cyclopropane-1-carboxamido)benzamide] | 50 to 100% | 50 to 100% | A (80-100)
Cc1cc(N)ccc1NC(=O)c1cccc(NC(=O)[C@H]2[C@H](c3cc(Cl)cc(Cl)c3)C2(Cl)Cl)c1 (relative stereo) [F266, trans-N-(4-Amino-2-methylphenyl)-3-(2,2-dichloro-3-(3,5-dichlorophenyl)cyclopropane-1-carboxamido)benzamide] | 50 to 100% | 50 to 100% | A (80-100)
N#Cc1cc(F)ccc1NC(=O)c1cccc(NC(=O)[C@H]2[C@H](c3cc(Cl)c(Cl)c(Cl)c3)C2(Cl)Cl)c1 (relative stereo) [F267, trans-N-(2-cyano-4-fluorophenyl)-3-(2,2-dichloro-3-(3,4,5-trichlorophenyl)cyclopropane-1-carboxamido)benzamide] | 50 to 100% | 50 to 100% | B (More than 0-Less than 80)
N#Cc1cc(F)ccc1NC(=O)c1cccc(NC(=O)[C@H]2[C@H](c3ccc(Cl)c(Cl)c3)C2(Cl)Cl)c1 (relative stereo) [F268, trans-N-(2-Cyano-4-fluorophenyl)-3-(2,2-dichloro-3-(3,4-dichlorophenyl)cyclopropane-1-carboxamido)benzamide] | 50 to 100% | 50 to 100% | A (80-100)
O=C(Nc1ccc(F)cc1)c1cc(NC(=O)[C@H]2[C@H](c3ccc(Br)c(Cl)c3)C2(Cl)Cl)ccc1Cl (relative stereo) [F270, 5-(trans-3-(4-Bromo-3-chlorophenyl)-2,2-dichlorocyclopropane-1-carboxamido)-2-chloro-N-(4-fluorophenyl)benzamide] | 50 to 100% | 50 to 100% | A (80-100)
N#Cc1cc(F)ccc1NC(=O)c1cccc(NC(=O)[C@H]2[C@H](c3cc(Cl)cc(Cl)c3)C2(Cl)Cl)c1 (relative stereo) [F271, trans-N-(2-Cyano-4-fluorophenyl)-3-(2,2-dichloro-3-(3,5-dichlorophenyl)cyclopropane-1-carboxamido)benzamide] | 50 to 100% | 50 to 100% | A (80-100)
Cc1cc(F)ccc1NC(=O)c1cccc(NC(=O)[C@H]2[C@H](c3cc(Cl)cc(Cl)c3)C2(Cl)Cl)c1 (relative stereo) [F272, trans-3-(2,2-Dichloro-3-(3,5-dichlorophenyl)cyclopropane-1-carboxamido)-N-(4-fluoro-2-methylphenyl)benzamide] | 50 to 100% | 50 to 100% | A (80-100)
CN(C(=O)c1cccc(NC(=O)[C@H]2[C@H](c3cc(Cl)cc(Cl)c3)C2(Cl)Cl)c1)c1ccc(F)cc1 (relative stereo) [F273, trans-3-(2,2-Dichloro-3-(3,5-dichlorophenyl)cyclopropane-1-carboxamido)-N-(4-fluorophenyl)-N-methylbenzamide] | 50 to 100% | 50 to 100% | A (80-100)
O=C(Nc1ccc(F)cc1Cl)c1cccc(NC(=O)[C@H]2[C@H](c3cc(Cl)cc(Cl)c3)C2(Cl)Cl)c1 (relative stereo) [F274, trans-N-(2-Chloro-4-fluorophenyl)-3-(2,2-dichloro-3-(3,5-dichlorophenyl)cyclopropane-1-carboxamido)benzamide] | 50 to 100% | 50 to 100% | A (80-100)
N#Cc1ccc(NC(=O)c2cc(NC(=O)[C@H]3[C@H](c4cc(Cl)cc(Cl)c4)C3(Cl)Cl)ccc2Cl)c(C#N)c1 (relative stereo) [F287, trans-2-Chloro-5-(2,2-dichloro-3-(3,5-dichlorophenyl)cyclopropane-1-carboxamido)-N-(2,4-dicyanophenyl)benzamide] | 50 to 100% | 50 to 100% | A (80-100)
COC(=O)CNc1ccc(NC(=O)c2cc(NC(=O)[C@H]3[C@H](c4cc(Cl)cc(Cl)c4)C3(Cl)Cl)ccc2Cl)c(C)c1 (relative stereo) [F288, trans-methyl (4-(2-chloro-5-(2,2-dichloro-3-(3,5-dichlorophenyl)cyclopropane-1-carboxamido)benzamido)-3-methylphenyl)glycinate] | 50 to 100% | 50 to 100% | A (80-100)
C=Cc1ccc([C@H]2[C@H](C(=O)Nc3ccc(Cl)c(C(=O)Nc4ccc(F)cc4)c3)C2(Cl)Cl)cc1Cl (relative stereo) [F289, 2-chloro-5-(trans-2,2-dichloro-3-(3-chloro-4-vinylphenyl)cyclopropane-1-carboxamido)-N-(4-fluorophenyl)benzamide] | 50 to 100% | 50 to 100% | A (80-100)
